The values that follow come from patent US9364448B2, “Nitisinone for treatment of oculocutaneous/ocular albinism and for increasing pigmentation” (The United States of America, as represented by the …, priority 2010, dated 2016).

What all share (type): in vivo, mouse
Assay [1] relates to C57BL/6J-Tyr^c-h/c-h mice (OCA1b model). Nature of the assay: Transmission electron microscopy of iris, RPE and choroid, Tyr^c-h/c-h mice. To be noted: treated vs controls, statistically significant in all three tissues, FIG. 4. The method, then: Transmission Electron Microscopy. Eyes from drug and vehicle-treated mice were dissected and divided into anterior and posterior segments (n=2 eyes from 2 separate mice in each group). The iris and posterior part (choroid, RPE and retina) of the eyes were removed and fixed in 2% glutaraldehyde and 2% paraformaldehyde in 0.1 M sodium phosphate buffer (PB), pH 7.4 for about 12 hours at room temperature (RT). After a wash with rinsing buffer (RB, 4% sucrose and 0.15 mM CaCl2 in PB), pH 7.4 at 4° C., tissues were postfixed in 1% OsO4 in 0.1 M PB, pH 7.4 for 1 hour. After rinsing and dehydration, tissues were embedded in Durcupan resin for 72 hours at 60° C. One micron semi-sections were used for tissue orientation. About 70-90 nm ultrasections were also collected in 200 mesh grids and counterstained with 5% uranyl acetate and 0.3% lead citrate. […]
In order to quantitate the effect of NTBC on pigmentation in ocular tissues and to assess for sub-clinical changes in ocular pigmentation, transmission electron microscopy (TEM) of iris, retinal pigment epithelium (RPE), and choroid of treated and control mice (n=4 eyes from 2 mice for each group) was performed. […]

Assay [2] deals with C57BL/6J-Tyr^c-2J/c-2J mice (OCA1a model). Nature of the assay: Plasma tyrosine in NTBC-treated Tyr^c-2J/c-2J mice. The method, then: Drug Dosing and Monitoring. […] Plasma tyrosine was assayed from retro-orbital blood taken from mice at 1 week, and 4 weeks into treatment. Because the volume of blood that could be obtained from non-terminal bleeds was small, the plasma from 2-3 mice was pooled to make a single measurement. Plasma samples were frozen immediately after collection on dry ice. Samples ready for assay were gently thawed, diluted with an equal volume of loading buffer (0.2 M lithium citrate, pH 2.2), and filtered using Vivaspin 500 (3000 Da molecular weight cut-off, Sartorius Stedman Biotech, Goettingen, Germany) spun in a fixed angle centrifuge at about 14000×g for 60 minutes at a temperature of about 16-20° C. The supernatant was collected and tyrosine was quantitated on a Biochrom 30 […] (Biochrom, Ltd., Cambridge, UK) using the manufacturer's specifications. At the beginning of the study, baseline plasma concentrations of tyrosine, coat color (gross and microscopic), anterior segment pigment, and posterior segment pigment were documented for each mouse prior to initiating experiments. […] It is known that a possible side effect of NTBC treatment is corneal irritation, which is monitored daily. […] At the end of four weeks time, plasma tyrosine concentrations were assessed in both treated and control animals.

Assay [3] deals with C57BL/6J-Tyr^c-h/c-h mice (OCA1b model). As to the kind of experiment: Plasma tyrosine in NTBC-treated Tyr^c-h/c-h (Himalayan) mice. The method, then: Drug Dosing and Monitoring.
Plasma tyrosine was assayed from retro-orbital blood taken from mice at 1 week, and 4 weeks into treatment. Because the volume of blood that could be obtained from non-terminal bleeds was small, the plasma from 2-3 mice was pooled to make a single measurement. Plasma samples were frozen immediately after collection on dry ice. Samples ready for assay were gently thawed, diluted with an equal volume of loading buffer (0.2 M lithium citrate, pH 2.2), and filtered using Vivaspin 500 (3000 Da molecular weight cut-off, Sartorius Stedman Biotech, Goettingen, Germany) spun in a fixed angle centrifuge at about 14000×g for 60 minutes at a temperature of about 16-20° C. The supernatant was collected and tyrosine was quantitated on a Biochrom 30 […] (Biochrom, Ltd., Cambridge, UK) using the manufacturer's specifications.
Using the same protocol as described above, baseline plasma tyrosine, coat color (gross and microscopic), anterior segment pigment, and posterior segment pigment was documented for each mouse prior to initiating experiments. […] These treated mice were compared to an age- and gender-matched cohort of C57BL/6J-Tyr^c-h/c-h mice over the same time period. Corneal irritation due to NTBC treatment was monitored daily. At the start of treatment, an area of hair was plucked/shaved from each mouse's back, which has the effect of stimulating new hair growth and possibly new pigment deposition in the hair shaft. At the end of four weeks' time, plasma tyrosine concentrations were assessed in both treated and control animals.

Regarding `O=C1CCCC(=O)C1C(=O)c1ccc(C(F)(F)F)cc1[N+](=O)[O-]` [NTBC, 2-(-2-nitro-4 trifluoromethylbenzoyl)-1,3 cyclohexanedione], the “Number of pigmented melanosomes in iris, choroid and RPE (TEM)” value in assay [1] was “clear increase”. Further, the Plasma tyrosine concentration in assay [2] (Tyr^c-2J/c-2J (OCA1a model), 4 mg/kg q.o.d. oral, after 30 days, n = 4) is recorded as 673 ± 73 μM (n = 4,; in assay [3] (Tyr^c-h (OCA1b model), 4 mg/kg q.o.d. oral, after 30 days, n = 4), 305 ± 35 μM (n = 4,. Moreover, the “Plasma tyrosine concentrations, treated vs control” value in assay [2] (Tyr^c-2J/c-2J mice, 1 mg/kg every other day by oral gavage, one month) is given as “not statistically significantly different”; in assay [3] (Tyr^c-h/c-h mice, dose as in Example 1 (1 mg/kg every other day), one month), “not statistically significantly different”. For the same compound, the “Increase in steady-state plasma tyrosine concentrations” value in assay [3] (Tyr^c-h/c-h mice, 4 mg/kg orally every other day, vs control) is recorded as around 4 fold.
